Entries after “also recorded” stand apart in the source; their conditions may differ. Read-outs that look alike come from different tables or passages of the source.
Experiments:
human NAT1 = biological target: T1, human NAT1 (Homo sapiens, UniProt P18440); assay: N-acetylation by recombinant human NAT1; assay type: in vitro ADME; settings: for % Conversion NAT1: compound 100 μM, 37° C., 120 min, N-acyl product by HPLC; for susceptibility to N-acetylation by NAT1, in words: human recombinant NAT1
T1 construct: purchased BD Gentest (Bedford, Mass.); host or cells: insect cells
T1 sequence (P18440 1-290): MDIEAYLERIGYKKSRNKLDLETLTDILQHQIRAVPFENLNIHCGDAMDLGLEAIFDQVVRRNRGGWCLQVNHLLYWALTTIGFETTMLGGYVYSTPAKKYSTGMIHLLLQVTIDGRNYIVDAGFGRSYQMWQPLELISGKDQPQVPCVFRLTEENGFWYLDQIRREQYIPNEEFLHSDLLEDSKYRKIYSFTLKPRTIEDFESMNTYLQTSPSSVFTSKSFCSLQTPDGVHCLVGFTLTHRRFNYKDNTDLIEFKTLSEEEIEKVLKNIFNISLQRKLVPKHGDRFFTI
Procedure: (§1) Insect cell-expressed human NAT1 and NAT2 and control insect cytosol were obtained from BD Gentest (Bedford, Mass.). Compounds (100 μM) were incubated in 0.25 mL of NAT reaction cocktail consisting of 25 mM potassium phosphate pH 7.4 (at 25° C.), 1 mM EDTA, 1 mM DTT, 0.5 mM acetyl CoA, 5 mM acetyl-DL-carnitine, 20 u/mL acetyltransferase and either NAT1, NAT2 or control insect cytosol (0.1 mg/mL). Reactions were performed in an Eppendorf Thermomixer (37° C., 120 min.). At 0 and 120 min., 100 μl of each reaction was removed and added to a clean 1.7 mL tube containing 150 μl of 100% methanol. The tubes were vortexed and centrifuged at 14,000 rpm for 10 min. in an Eppendorf microcentrifuge (room temperature, 5 min., 14,000 rpm). The supernatants were analyzed by HPLC (Agilent 1100 series) using a Phenosphere C18 column (5 micron, 150×4.6 mm). The column was equilibrated with 20 mM potassium phosphate pH 4.5 or pH 6.2 (at 25° C.) and eluted with a linear gradient to 80% acetonitrile. The percent conversion of the compounds was calculated from the following equation: area of N-acyl product divided by (area of compound+area of N-acyl product), multiplied by 100.

rat liver FBPase = biological target: T2, rat liver FBPase (Rattus norvegicus, UniProt P19112); assay: Inhibition of rat liver FBPase; assay type: biochemical; settings: partially purified rat liver FBPase; read-out: IC50 (rlFBPase)
T2 construct: This partially purified fraction was used for enzyme assays; from tissue; host or cells: rat liver (45-75% ammonium sulfate fraction of the homogenate)
T2 sequence (P19112 2-363 limits assumed): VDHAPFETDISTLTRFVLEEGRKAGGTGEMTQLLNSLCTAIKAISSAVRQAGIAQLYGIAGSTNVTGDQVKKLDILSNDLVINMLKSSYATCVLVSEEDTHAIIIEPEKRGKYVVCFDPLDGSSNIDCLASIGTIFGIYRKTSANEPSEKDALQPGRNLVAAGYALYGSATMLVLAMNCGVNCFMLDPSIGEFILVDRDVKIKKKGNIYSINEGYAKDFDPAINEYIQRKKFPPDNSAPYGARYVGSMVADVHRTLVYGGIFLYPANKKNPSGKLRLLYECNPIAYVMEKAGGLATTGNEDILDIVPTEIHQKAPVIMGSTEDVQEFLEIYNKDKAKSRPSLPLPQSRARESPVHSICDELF
Procedure: Rat liver FBPase was obtained by homogenizing freshly isolated rat liver in 100 mM Tris-HCl buffer, pH 7.4, containing 1 mM EGTA, and 10% glycerol. The homogenate was clarified by centrifugation, and the 45-75% ammonium sulfate fraction prepared. This fraction was redissolved in the homogenization buffer and desalted on a PD-10 gel filtration column (Biorad) eluted with same. This partially purified fraction was used for enzyme assays.

[1] = Variability of N-acetylation in human liver S9 fractions; assay type: in vitro ADME; settings: 100 μM, S9 10 mg/mL protein; donors with high or low N-acetylase activity
Procedure: The reactions are incubated, processed, and analyzed as described in Example C.

human NAT2 [2] = biological target: T3, human NAT2 (Homo sapiens, UniProt P11245); settings: for % Conversion NAT2: human, 120 min, 100 μM, pH 7.4
T3 sequence (P11245 1-290): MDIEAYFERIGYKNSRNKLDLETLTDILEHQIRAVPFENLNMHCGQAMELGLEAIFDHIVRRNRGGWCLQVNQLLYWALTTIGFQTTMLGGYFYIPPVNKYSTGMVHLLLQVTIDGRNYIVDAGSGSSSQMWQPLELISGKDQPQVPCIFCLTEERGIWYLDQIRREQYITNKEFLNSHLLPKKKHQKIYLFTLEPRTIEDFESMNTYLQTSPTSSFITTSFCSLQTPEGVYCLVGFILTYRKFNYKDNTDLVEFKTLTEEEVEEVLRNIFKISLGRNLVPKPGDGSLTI
Procedure: as §1

human liver FBPase = biological target: T4, human liver FBPase (Homo sapiens, UniProt P09467); assay: Inhibition of human liver FBPase; assay type: biochemical; settings: purified recombinant human liver FBPase, 0.150 mM fructose 1,6-bisphosphate, 37° C.; read-out: IC50 (hlFBPase)
T4 construct: made in house; host or cells: E. coli BL21
T4 sequence (P09467 2-338 limits assumed): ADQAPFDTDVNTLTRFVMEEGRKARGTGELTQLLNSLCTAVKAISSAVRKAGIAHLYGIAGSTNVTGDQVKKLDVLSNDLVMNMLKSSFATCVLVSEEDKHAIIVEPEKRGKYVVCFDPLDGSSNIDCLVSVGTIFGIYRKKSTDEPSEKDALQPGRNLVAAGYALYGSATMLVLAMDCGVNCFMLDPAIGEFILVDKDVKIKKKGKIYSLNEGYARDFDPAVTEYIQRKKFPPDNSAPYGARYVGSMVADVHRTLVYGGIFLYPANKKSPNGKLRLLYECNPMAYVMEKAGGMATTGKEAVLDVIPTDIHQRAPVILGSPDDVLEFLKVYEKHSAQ
Procedure: E. coli strain BL21 transformed with a human liver FBPase-encoding plasmid was obtained from Dr. M. R. El-Maghrabi at the State University of New York at Stony Brook. […] Enzymatic activity was measured spectrophotometrically in reactions that coupled the formation of product (fructose 6-phosphate) to the reduction of dimethylthiazoldiphenyltetrazolium bromide (MTT) via NADP^+ and phenazine methosulfate (PMS), using phosphoglucose isomerase and glucose 6-phosphate dehydrogenase as the coupling enzymes. Reaction mixtures (200 μl) were made up in 96-well microtitre plates, and consisted of 50 mM Tris-HCl, pH 7.4, 100 mM KCl, 5 mM EGTA, 2 mM MgCl2, 0.2 mM NADP, 1 mg/ml BSA, 1 mM MTT, 0.6 mM PMS, 1 unit/ml phosphoglucose isomerase, 2 units/ml glucose 6-phosphate dehydrogenase, and 0.150 mM substrate (fructose 1,6-bisphosphate). Inhibitor concentrations were varied from 0.01 μM to 10 μM. Reactions were started by the addition of 0.002 units of pure hlFBPase, and were monitored for 7 min. at 590 nm in a Molecular Devices Plate Reader (37° C.).

human NAT2 [3] = biological target: T3, human NAT2; assay: N-acetylation by recombinant human NAT2
Procedure: as §1

Sprague-Dawley rats = assay: Glucose lowering following oral administration to the fasted, normal rat; assay type: in vivo; settings: maximum lowering relative to saline controls, 10 mg/kg oral, 18-h fasted rats
Procedure: Compounds were administered by oral gavage to 18-h fasted, Sprague-Dawley rats (250-300 g, n=3/4/group) at a dose of 10 mg/kg. Phosphonic acids (active moieties) were prepared in deionized water, and the solution adjusted to neutrality with sodium hydroxide. Prodrugs were dissolved in polyethylene glycol (mw 400). Blood samples were taken via tail vein nick immediately prior to dosing and at 1 h intervals thereafter. Blood glucose was analyzed by means of a HemoCue glucose analyzer (HemoCue Inc., Mission Viejo, Calif.). The table below indicates the maximum % glucose lowering achieved relative to control animals dosed with saline.

ZDF rats = assay: Blood glucose lowering in the Zucker Diabetic Fatty (ZDF) rat; assay type: in vivo; settings: for glucose lowering compared to vehicle-treated rats: 10 mg/kg oral in PEG-400, at 6 h, fasting ZDF rats; for duration of action: ZDF rat, oral, 2.1 at 10-300 mg/kg
Procedure: Nine week old ZDF rats were fasted at 7 am and screened for hyperglycemia (BG>300 mg/dl) at 12:30 pm. […] Food was withheld for 6 to 9 h. Blood samples were collected intermittently from the tail vein and diluted 1:2 (v:v) in 20% glycerol-saline with 20 U/ml heparin. Blood glucose was determined by means of a Hemocue glucose analyzer (Hemocue Inc., Mission Viejo, Calif.) used according to the instructions of the manufacturer. Results were expressed as means ±standard errors of the mean (sem) for all values. Differences between treatment and vehicle-treated animals were evaluated using ANOVA with Dunnett's post-hoc analysis or Tukey-Kramer's post hoc analysis when all differences are compared. Differences are considered significant when p≦0.05.

% Conversion NAT1 (human NAT1) [%]	susceptibility to N-acetylation by NAT1, in words (human NAT1)	conversion to N-acetylated metabolite in human liver S9 from various donors [1]	% Conversion NAT2 (human NAT2 [2]) [%]	IC50 (human liver FBPase) [nM]	melting point [°C]	susceptibility to N-acetylation by NAT2, in words (human NAT2 [2])	SMILES	inhibition in vivo at 10 mg/kg (Sprague-Dawley rats) [%]	other results
51	highly susceptible	high levels	5.9	–	–	–	CC(C)Cc1sc(N)nc1-c1ccc(P(=O)(O)O)o1 [Compound 3.6, reference compound]	–	IC50 (rat liver FBPase): 140 nM
0	not metabolized	–	–	18	202 to 205	–	CCC(C)(CC)C(=O)c1sc(N)nc1-c1ccc(P(=O)(O)O)o1 [Compound 1.3, [5-(2-amino-5-(2-ethyl-2-methyl-butyryl)thiazol-4-yl)furan-2-yl]phosphonic acid]	–	–
–	–	–	–	–	86 to 88	–	CCOC(=O)CNP(=O)(NCC(=O)OCC)c1ccc(-c2nc(N)sc2C(=O)C(C)(C)C)o1 [Compound 2.4]	22	–
–	–	–	–	66	> 207	–	CC(=O)c1sc(N)nc1-c1ccc(P(=O)(O)O)o1 [Compound 1.4, [5-(2-amino-5-acetylthiazol-4-yl)furan-2-yl]phosphonic acid]	–	–
–	–	–	–	56	> 210	–	Nc1nc(-c2ccc(P(=O)(O)O)o2)c(C(=O)c2ccccc2)s1 [Compound 1.5, [5-(2-amino-5-benzoylthiazol-4-yl)furan-2-yl]phosphonic acid]	–	–
22.4	highly susceptible	–	–	12	–	–	CC(C)(C)Cc1sc(N)nc1-c1ccc(P(=O)(O)O)o1 [Compound 3.1, reference compound]	–	IC50 (rat liver FBPase): 92 nM
–	–	–	–	–	157 to 160	–	CCOC(=O)C(C)(C)NP(=O)(NC(C)(C)C(=O)OCC)c1ccc(-c2nc(N)sc2C(=O)C(C)(CC)CC)o1 [Compound 2.5]	15	–
–	–	–	–	–	160 to 164	–	CCC(C)(CC)C(=O)c1sc(N)nc1-c1ccc(P(=O)(NC(C)(C)C(=O)OC(C)C)NC(C)(C)C(=O)OC(C)C)o1 [Compound 2.6]	12	–
–	–	–	0	–	–	insusceptible	CC(C)OC(=O)C(C)(C)NP(=O)(NC(C)(C)C(=O)OC(C)C)c1ccc(-c2nc(N)sc2C(=O)C(C)(C)C)o1 [Compound 2.3]	27	–
–	–	–	0	–	–	insusceptible	CCOC(=O)[C@H](C)NP(=O)(N[C@@H](C)C(=O)OCC)c1ccc(-c2nc(N)sc2C(=O)C(C)(C)C)o1 [Compound 2.2, 2-amino-5-(2,2-dimethylpropionyl)-4-{[5-(N,N′-((S)-1-ethoxycarbonyl)-ethyl)phosphonamido]furan-2-yl}thiazole]	25	–
6.3	–	high levels	62.4	> 100000	–	extensively metabolized	CCOC(=O)[C@H](C)NP(=O)(N[C@@H](C)C(=O)OCC)c1ccc(-c2nc(N)sc2CC(C)C)o1 [Compound 4.6, reference compound]	–	glucose lowering compared to vehicle-treated rats (ZDF rats): 14%; duration of action (ZDF rats): ~3 h
0	insusceptible	no conversion	0	> 100000	149 to 152	insusceptible	CCOC(=O)C(C)(C)NP(=O)(NC(C)(C)C(=O)OCC)c1ccc(-c2nc(N)sc2C(=O)C(C)(C)C)o1 [Compound 2.1]	68	glucose lowering compared to vehicle-treated rats (ZDF rats): 30%; duration of action (ZDF rats): > 9 h

SMILES	% Conversion NAT1 (human NAT1) [%]	susceptibility to N-acetylation by NAT1, in words (human NAT1)	conversion to N-acetylated metabolite in human liver S9 from various donors [1]	% Conversion NAT2 (human NAT2 [2]) [%]	IC50 (human liver FBPase) [nM]	melting point [°C]	susceptibility to N-acetylation by NAT2, in words (human NAT2 [2])	inhibition in vivo at 10 mg/kg (Sprague-Dawley rats) [%]	other results
CC(C)(C)C(=O)c1sc(N)nc1-c1ccc(P(=O)(O)O)o1 [Compound 1.1, {5-[2-amino-5-(2,2-dimethylpropionyl)thiazol-4-yl]-furan-2-yl}phosphonic acid]	0	not metabolized; also recorded: insusceptible	no conversion	–	31	–	–	–	IC50 (rat liver FBPase): 189 nM; % Conversion NAT2 (human NAT2 [3]; compound 100 μM, 37° C., 120 min, N-acyl product by HPLC): 0%; susceptibility to N-acetylation by NAT2, in words (human NAT2 [3]; human recombinant NAT2): insusceptible
